Measured values from patent US8598193B2, “Polycyclic agents for the treatment of respiratory syncytial virus infections” (Biota Scientific Management Pty Ltd., priority 2003, dated 2013).
Converted amounts (≈) assume the structure as drawn.

These compounds were tested on RSV A2 (assay: RSV antiviral cytopathic effect (CPE) assay, MTT readout). Conditions: human respiratory syncytial virus, HEp-2, 120 h, read-out: Activity Range (RSV A2 antiviral EC50), compounds of Table 2.
Type: cell-based
Protocol: Method Q: RSV Antiviral Assay Protocol
Compounds of the invention were tested for their antiviral activity against respiratory syncytial virus. Cytopathic effect (CPE) assays were performed essentially as described in the literature (see for example Watanabe et al, 1. Virological Methods, 1994, 48, 257). Serial dilutions of the test compounds were made in assay medium. HEp2 cells (1.0×10^4 cells/well) were infected with RSV at a low multiplicity of infection (e.g. RSV A2 at an moi of 0.01) and 100 μL added to cultures assessing antiviral activity and cells without virus added to those assessing compound cytotoxicity. Assays were incubated for approximately 5 days at 37° C. in a 5% CO2 atmosphere. The extent of CPE was determined via metabolism of the vital dye 3-(4,5-dimethylthiaxol-2-yl)-2,5-diphenyltetrazolium bromide (MTT). A 3 mg/ml stock of MTT was made in assay medium and 100 μL added to each well, taking the final MTT concentration to […]. After 2 hours incubation at 37° C., the media-MTT solution was removed and 200 μL of isopropanol was added to dissolve the vital dye crystals. Plates were shaken and the absorbance read at 540 nm. The compound concentrations that inhibited CPE by 50% (EC50) and developed cytotoxicity (CC50) were calculated using an Excel curve fitting program.

SMILES	EC50 [µg/mL]
Cc1nnsc1C(=O)N1CCN2C(=O)c3ccccc3C21c1ccc(Cl)cc1 (stereo not drawn) [Compound 184]	< 0.1

Same assay, conditions: human respiratory syncytial virus, HEp-2, 120 h; RSV A2 in HEp2 cells, CPE assay, MTT, approx. 5 days; read-out: Activity Range (RSV A2 antiviral EC50), compounds of Table 2

SMILES	EC50 [µg/mL]
O=C(c1ccc(F)cc1)N1CCN2C(=O)c3ccccc3C12c1ccc(C(F)(F)F)cc1 (stereo not drawn) [Compound 307]	0.1 to 0.25 (≈ 0.227 to 0.568 µM)
CCOc1ccc(C23c4ccccc4C(=O)N2CCN3C(=O)c2ccc(F)cc2)cc1 (stereo not drawn) [Compound 308]	0.1 to 0.25 (≈ 0.24 to 0.6 µM)
CC(C)Oc1ccc(C23c4ccccc4C(=O)N2CCN3C(=O)c2ccc(F)cc2)cc1 (stereo not drawn) [Compound 310]	0.25 to 1 (≈ 0.581 to 2.32 µM)
O=C(c1ccc(F)nc1)N1CCN2C(=O)c3ccccc3C12c1ccc(OCC2CC2)cc1 (stereo not drawn) [Compound 316]	< 0.1
Cc1nonc1C(=O)N1CCN2C(=O)c3ccccc3C21c1ccc(Cl)cc1 (stereo not drawn) [Compound 335]	< 0.1
CCCc1ccc(C23c4ccccc4C(=O)N2CCN3C(=O)CC)cc1 (stereo not drawn) [Compound 199]	0.25 to 1 (≈ 0.717 to 2.87 µM)
O=C(CSc1ncccn1)N1CCN2C(=O)c3ccccc3C12c1ccc(Cl)cc1 (stereo not drawn) [Compound 303]	0.25 to 1 (≈ 0.572 to 2.29 µM)
Cc1cc(C(=O)N2CCN3C(=O)c4ccccc4C32c2ccc(Cl)cc2)c(C)o1 (stereo not drawn) [Compound 325]	< 0.1
O=C(c1ccc(F)cc1)N1CCN2C(=O)c3ccccc3C12c1ccc(OCc2ccccc2)cc1 (stereo not drawn) [Compound 262]	0.1 to 0.25 (≈ 0.209 to 0.522 µM)
O=C(c1ccc(F)cc1)N1CCN2C(=O)c3ccccc3C12c1cccc(Cl)c1 (stereo not drawn) [Compound 144]	0.1 to 0.25 (≈ 0.246 to 0.614 µM)
COc1ccc(CNC(=O)N2CCN3C(=O)c4ccccc4C23c2ccc(Cl)cc2)cc1 (stereo not drawn) [Compound 180]	0.25 to 1 (≈ 0.558 to 2.23 µM)
O=C(c1ccc(F)cc1)N1CCN2C(=O)c3ccccc3C12c1ccc(F)cc1 (stereo not drawn) [Compound 231]	0.25 to 1 (≈ 0.64 to 2.56 µM)
O=C(CSc1ccccn1)N1CCN2C(=O)c3ccccc3C12c1ccc(Cl)cc1 (stereo not drawn) [Compound 299]	0.25 to 1 (≈ 0.573 to 2.29 µM)
CCc1ccc(C23c4ccccc4C(=O)N2CCN3C(=O)Cc2ccc(OC)cc2)cc1 (stereo not drawn) [Compound 190]	0.25 to 1 (≈ 0.586 to 2.34 µM)
O=C(c1ccc(F)cc1)N1CCN2C(=O)c3ccccc3C12c1ccc(OCCCCCl)cc1 (stereo not drawn) [Compound 264]	0.25 to 1 (≈ 0.522 to 2.09 µM)
COc1ccc(CNC(=O)N2CCN3C(=O)c4ccccc4C23c2ccc(C)cc2)cc1 (stereo not drawn) [Compound 179]	0.25 to 1 (≈ 0.585 to 2.34 µM)

SMILES	EC50 [µg/mL]
COc1ccc(CC(=O)N2CCN3C(=O)c4ccccc4C23c2ccc(Br)cc2)cc1 (stereo not drawn) [Compound 235]	0.1 to 0.25 (≈ 0.209 to 0.524 µM)
CCc1ccc(C23c4ccccc4C(=O)N2CCN3C(=O)c2ccc(F)cc2)cc1 (stereo not drawn) [Compound 191]	< 0.1
CCCc1ccc(C23c4ccccc4C(=O)N2CCN3C(=O)Cc2ccc(OC)cc2)cc1 (stereo not drawn) [Compound 201]	0.25 to 1 (≈ 0.567 to 2.27 µM)
O=C(c1ccc(F)cc1)N1CCN2C(=O)c3ccccc3C12c1ccc(Br)cc1 (stereo not drawn) [Compound 234]	< 0.1
O=C(c1cccs1)N1CCN2C(=O)c3ccccc3C12c1ccc(Cl)cc1 (stereo not drawn) [Compound 224]	< 0.1
CCCOc1ccc(C23c4ccccc4C(=O)N2CCN3C(=O)c2ccc(F)cc2)cc1 (stereo not drawn) [Compound 311]	0.1 to 0.25 (≈ 0.232 to 0.581 µM)
O=C(c1ccc(F)nc1)N1CCN2C(=O)c3ccccc3C12c1ccc(F)cc1 (stereo not drawn) [Compound 314]	0.1 to 0.25 (≈ 0.256 to 0.639 µM)
Cc1ccc(C23c4ccccc4C(=O)N2CCN3C(=O)NCc2ccc(F)cc2)cc1 (stereo not drawn) [Compound 88]	< 0.1
COCCOc1ccc(C23c4ccccc4C(=O)N2CCN3C(=O)c2ccc(F)cc2)cc1 (stereo not drawn) [Compound 238]	0.1 to 0.25 (≈ 0.224 to 0.56 µM)
CCC(=O)N1CCN2C(=O)c3ccccc3C12c1ccc(CC)cc1 (stereo not drawn) [Compound 192]	0.25 to 1 (≈ 0.748 to 2.99 µM)
O=C1c2ccccc2C2(c3ccc(Cl)cc3)N1CCN2C(=O)C1Cc2ccccc21 (stereo not drawn) [Compound 218]	0.25 to 1 (≈ 0.603 to 2.41 µM)
O=C(c1csc(-c2cccnc2)n1)N1CCN2C(=O)c3ccccc3C12c1ccc(Cl)cc1 (stereo not drawn) [Compound 205]	< 0.1
O=C1c2ccccc2C2(c3ccc(Cl)cc3)N1CCN2C(=O)[C@@H]1CSC(c2cccs2)=N1 (stereo partly drawn) [Compound 323]	0.25 to 1 (≈ 0.521 to 2.08 µM)
O=C(c1ccco1)N1CCN2C(=O)c3ccccc3C12c1ccc(Cl)cc1 (stereo not drawn) [Compound 219]	< 0.1
O=C(CCCc1ccccc1)N1CCN2C(=O)c3ccccc3C12c1ccc(Cl)cc1 (stereo not drawn) [Compound 227]	0.25 to 1 (≈ 0.58 to 2.32 µM)
O=C(c1ccno1)N1CCN2C(=O)c3ccccc3C12c1ccc(Cl)cc1 (stereo not drawn) [Compound 183]	0.1 to 0.25 (≈ 0.263 to 0.658 µM)

Same assay, conditions: human respiratory syncytial virus, HEp-2, 120 h; RSV A2 in HEp2 cells, CPE assay, MTT, approx. 5 days; read-out: Activity Range (RSV A2 antiviral EC50), compounds of Table 3

SMILES	EC50 [µg/mL]
O=C(c1csc(-c2ccncc2)n1)N1CCN2C(=O)c3ccncc3C12c1ccc(Cl)cc1 (stereo not drawn) [Compound 457]	0.25 to 1 (≈ 0.527 to 2.11 µM)
O=C1c2ccncc2C2(c3ccc(Cl)cc3)N1CCN2C(=O)c1cccnc1Oc1ccc(Cl)cc1 (stereo not drawn) [Compound 395]	0.25 to 1 (≈ 0.483 to 1.93 µM)
O=C1c2ccncc2C2(c3ccc(Cl)cc3)N1CCN2C(=O)c1ccnn1-c1ccccc1 (stereo not drawn) [Compound 423]	0.25 to 1 (≈ 0.548 to 2.19 µM)
O=C(c1cccc(Cl)n1)N1CCN2C(=O)c3ccncc3C12c1ccc(Cl)cc1 (stereo not drawn) [Compound 453]	< 0.1
O=C(c1ccc(F)nc1)N1CCN2C(=O)c3cc[n+]([O-])cc3C12c1ccc(Cl)cc1 (stereo not drawn) [Compound 480]	< 0.1
Cc1oc(-c2ccccc2)cc1C(=O)N1CCN2C(=O)c3ccncc3C21c1ccc(Cl)cc1 (stereo not drawn) [Compound 394]	0.25 to 1 (≈ 0.532 to 2.13 µM)
O=C(c1cscn1)N1CCN2C(=O)c3ccncc3C12c1ccc(Cl)cc1 (stereo not drawn) [Compound 483]	< 0.1
Cc1cc(C(=O)N2CCN3C(=O)c4ccncc4C32c2ccc(Cl)cc2)n(C)n1 (stereo not drawn) [Compound 420]	0.25 to 1 (≈ 0.613 to 2.45 µM)
Cc1cc(C(=O)N2CCN3C(=O)c4ccncc4C23c2ccc(Cl)cc2)no1 (stereo not drawn) [Compound 382]	0.25 to 1 (≈ 0.633 to 2.53 µM)
Cc1cc(C(=O)N2CCN3C(=O)c4ccncc4C23c2ccc(Cl)cc2)nn1C (stereo not drawn) [Compound 421]	0.25 to 1 (≈ 0.613 to 2.45 µM)
O=C(c1ccsc1)N1CCN2C(=O)c3ccncc3C12c1ccc(Cl)cc1 (stereo not drawn) [Compound 430]	< 0.1
O=C(c1cncc(Br)c1)N1CCN2C(=O)c3ccncc3C12c1ccc(Cl)cc1 (stereo not drawn) [Compound 405]	0.1 to 0.25 (≈ 0.213 to 0.532 µM)
O=C(c1ccc(Cl)nc1)N1CCN2C(=O)c3ccncc3C12c1ccc(Cl)cc1 (stereo not drawn) [Compound 364]	0.25 to 1 (≈ 0.588 to 2.35 µM)
CCCSc1ncccc1C(=O)N1CCN2C(=O)c3ccncc3C21c1ccc(Cl)cc1 (stereo not drawn) [Compound 401]	0.1 to 0.25 (≈ 0.215 to 0.538 µM)
O=C1c2ccncc2C2(c3ccc(Cl)cc3)N1CCN2C(=O)c1sccc1Br (stereo not drawn) [Compound 445]	< 0.1
O=C1c2ccncc2C2(c3ccc(Cl)cc3)N1CCN2C(=O)c1ncoc1-c1ccccc1 (stereo not drawn) [Compound 463]	< 0.1
O=C(c1csc(-c2cccnc2)n1)N1CCN2C(=O)c3ccncc3C12c1ccc(Cl)cc1 (stereo not drawn) [Compound 381]	< 0.1

SMILES	EC50 [µg/mL]
O=C1c2ccncc2C2(c3ccc(Cl)cc3)N1CCN2C(=O)c1cccnc1Oc1ccccc1 (stereo not drawn) [Compound 404]	0.25 to 1 (≈ 0.518 to 2.07 µM)
Cc1cc(C(=O)N2CCN3C(=O)c4ccncc4C32c2ccc(Cl)cc2)c(C)o1 (stereo not drawn) [Compound 412]	< 0.1
Cc1cc(C(=O)N2CCN3C(=O)c4ccncc4C32c2ccc(Cl)cc2)c(C(F)(F)F)o1 (stereo not drawn) [Compound 385]	< 0.1
Cc1nonc1C(=O)N1CCN2C(=O)c3ccncc3C21c1ccc(Cl)cc1 (stereo not drawn) [Compound 484]	< 0.1
O=C(c1ccco1)N1CCN2C(=O)c3ccncc3C12c1ccc(Cl)cc1 (stereo not drawn) [Compound 413]	< 0.1
O=C(c1ccc(F)nc1)N1CCN2C(=O)c3ccncc3C12c1ccc(Cl)cc1 (stereo not drawn) [Compound 368]	< 0.1
O=C(c1csc(-c2cccs2)n1)N1CCN2C(=O)c3ccncc3C12c1ccc(Cl)cc1 (stereo not drawn) [Compound 377]	< 0.1
COc1ccc(-c2cc(C(=O)N3CCN4C(=O)c5ccncc5C34c3ccc(Cl)cc3)on2)cc1 (stereo not drawn) [Compound 465]	0.25 to 1 (≈ 0.513 to 2.05 µM)
Cc1nnsc1C(=O)N1CCN2C(=O)c3ccncc3C21c1ccc(Cl)cc1 (stereo not drawn) [Compound 386]	0.1 to 0.25 (≈ 0.243 to 0.607 µM)
O=C1c2ccncc2C2(c3ccc(Cl)cc3)N1CCN2C(=O)c1nsc(Cl)c1Cl (stereo not drawn) [Compound 461]	< 0.1
CCc1ccc(C23c4cnccc4C(=O)N2CCN3C(=O)c2ccc(F)cc2)cc1 (stereo not drawn) [Compound 361]	0.1 to 0.25 (≈ 0.249 to 0.623 µM)
O=C(c1cncnc1)N1CCN2C(=O)c3ccncc3C12c1ccc(Cl)cc1 (stereo not drawn) [Compound 481]	0.25 to 1 (≈ 0.638 to 2.55 µM)
O=C(c1ccc(F)cc1)N1CCN2C(=O)c3cccnc3C12c1ccc(Cl)cc1 (stereo not drawn) [Compound 360]	0.25 to 1 (≈ 0.613 to 2.45 µM)
COc1cscc1C(=O)N1CCN2C(=O)c3ccncc3C12c1ccc(Cl)cc1 (stereo not drawn) [Compound 441]	0.1 to 0.25 (≈ 0.235 to 0.587 µM)
CCSc1ncccc1C(=O)N1CCN2C(=O)c3ccncc3C21c1ccc(Cl)cc1 (stereo not drawn) [Compound 397]	0.1 to 0.25 (≈ 0.222 to 0.554 µM)
O=C(c1ccno1)N1CCN2C(=O)c3ccncc3C12c1ccc(Cl)cc1 (stereo not drawn) [Compound 448]	0.1 to 0.25 (≈ 0.263 to 0.657 µM)
